From paper doi:10.1101/2025.01.30.635686v1 (biorxiv, 2025)

Target: T1, YME1LAAA (monomeric AAA+ domain) (Homo sapiens, UniProt Q96TA2)
T1 sequence (Q96TA2 317-588): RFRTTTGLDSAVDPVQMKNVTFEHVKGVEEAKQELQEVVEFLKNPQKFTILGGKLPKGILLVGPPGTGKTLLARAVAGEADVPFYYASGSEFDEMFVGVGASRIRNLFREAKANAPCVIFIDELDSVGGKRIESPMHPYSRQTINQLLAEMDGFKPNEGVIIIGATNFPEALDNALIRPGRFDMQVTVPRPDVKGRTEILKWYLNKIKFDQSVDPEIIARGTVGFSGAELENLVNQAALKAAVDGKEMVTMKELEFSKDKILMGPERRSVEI
Experiment: methyl-TROSY NMR titration
Type: binding

Nc1ncnc2c1ncn2[C@@H]1O[C@H](COP(=O)(O)OP(=O)(O)O)[C@@H](O)[C@H]1O [ADP]
Kd: 4.6 ± 2.3 µM
